Reference: ChEMBL document CHEMBL3580594, “Synthesis and biological evaluation of 4-substituted fluoronucleoside analogs for the treatment of hepatitis B virus infection” (J Med Chem, 2015)

Legend:
[1] = system: Hepatitis B virus; assay: Antiviral activity against Hepatitis B virus in HepG2.2.15 cells assessed as inhibition of extracellular viral DNA replication at 0.2 uM after 3 days by real-time FQ-PCR analysis; assay type: functional; settings: HepG2 2.2.15, 72 h
[2] = system: Duck hepatitis B virus; assay: Antiviral activity against duck Hepatitis B virus infected in duck assessed as inhibition of viral DNA replication in serum at 0.04 to 20 mg/kg, po; assay type: functional, organism-based; settings: TDE = time-dependent effect
[3] = system: Liver microsome; assay: Drug metabolism in rat liver microsomes assessed as 1-((2R,3S,4R,5R)-5-azido-3-fluoro-4-hydroxy-5-(hydroxymethyl)tetrahydrofuran-2-yl)-4-(2-hydroxycyclopropylamino)pyrimidin-2(1H)-one formation after 2 hrs by LC-MS/MS analysis; assay type: ADME
[4] = species: Rattus norvegicus; assay: Drug metabolism in rat urine sample assessed as 4-amino-1-((2R,3S,4R,5R)-5-azido-3-fluoro-4-hydroxy-5-(hydroxymethyl)tetrahydrofuran-2-yl)pyrimidin-2(1H)-one formation by LC-MS/MS analysis; assay type: ADME, organism-based; settings: in vivo
[5] = system: Duck hepatitis B virus; assay: Antiviral activity against duck Hepatitis B virus infected in duck assessed as inhibition of viral DNA replication in liver at 1 mg/kg/day, po measured after 3 days of treatment withdrawal; assay type: functional; settings: 72 h
[6] = system: Mus musculus; assay: Toxicity in KM mouse assessed as peripheral WBC number in blood per liter at 40 mg/kg, po single dose after 48 hrs (reference value: 11.10 x 2.69/L x 10^-9); assay type: organism-based; settings: in vivo
[7] = system: Hepatitis B virus; assay: Antiviral activity against Hepatitis B virus in HepG2.2.15 cells assessed as inhibition of extracellular viral DNA replication at 1 uM after 6 days by real-time FQ-PCR analysis; assay type: functional; settings: HepG2 2.2.15, 144 h
[8] = system: Mus musculus; assay: Toxicity in KM mouse assessed as micronucleus frequency in bone marrow polychromatic erythrocyte at 20 mg/kg, po single dose after 48 hrs (reference value: 2.20 +/- 0.84 %); assay type: organism-based; settings: in vivo
[9] = system: Duck hepatitis B virus; assay: Antiviral activity against duck Hepatitis B virus infected in duck assessed as inhibition of viral DNA replication in liver at 0.04 mg/kg/day, po measured after 3 days of treatment withdrawal; assay type: functional; settings: 72 h
[10] = system: Hepatitis B virus; assay: Antiviral activity against Hepatitis B virus in HepG2.CW cells assessed as inhibition of viral DNA replication at 1 uM after 9 days by real-time FQ-PCR analysis; assay type: functional; settings: 216 h
[11] = system: Mus musculus; assay: Acute toxicity in KM mouse assessed as weight loss at 3 g/kg, iv suspended in 0.5% CMC/Na solution after 14 days; assay type: organism-based; settings: in vivo, 3000 mg/kg, 336 h
[12] = system: Duck hepatitis B virus; assay: Antiviral activity against duck Hepatitis B virus infected in duck assessed as inhibition of viral DNA replication in serum at 1 mg/kg/day, po treatment initiated at day 5 after infection relative to control; assay type: functional; settings: 120 h
[13] = system: Duck hepatitis B virus; assay: Antiviral activity against duck Hepatitis B virus infected in duck assessed as inhibition of viral DNA replication in serum at 0.2 mg/kg/day, po measured after 3 days of treatment withdrawal; assay type: functional; settings: 72 h
[14] = system: Rattus norvegicus; assay: In vivo drug metabolism in rat bile sample assessed as 1-((2R,3S,4R,5R)-5-azido-3-fluoro-4-hydroxy-5-(hydroxymethyl)tetrahydrofuran-2-yl)-4-(2-hydroxycyclopropylamino)pyrimidin-2(1H)-one formation by LC-MS/MS analysis; assay type: ADME, organism-based
[15] = system: Duck hepatitis B virus; assay: Antiviral activity against duck Hepatitis B virus infected in duck assessed as inhibition of viral DNA replication in liver at 0.2 mg/kg/day, po treatment initiated at day 5 after infection relative to control; assay type: functional; settings: 120 h
[16] = system: Duck hepatitis B virus; assay: Antiviral activity against duck Hepatitis B virus infected in duck assessed as inhibition of viral DNA replication in serum at 0.2 mg/kg/day, po treatment initiated at day 5 after infection relative to control; assay type: functional; settings: 120 h
[17] = system: Duck hepatitis B virus; assay: Antiviral activity against duck Hepatitis B virus infected in duck assessed as inhibition of viral DNA replication in serum at 0.04 mg/kg/day, po measured after 3 days of treatment withdrawal; assay type: functional; settings: 72 h
[18] = system: Hepatitis B virus; assay: Antiviral activity against Hepatitis B virus in HepG2.2.15 cells assessed as inhibition of intracellular viral DNA replication at 0.2 uM after 9 days by real-time FQ-PCR analysis; assay type: functional; settings: HepG2 2.2.15, 216 h
[19] = system: Duck hepatitis B virus; assay: Antiviral activity against duck Hepatitis B virus infected in duck assessed as inhibition of viral DNA replication in serum at 0.04 mg/kg/day, po treatment initiated at day 10 after infection relative to control; assay type: functional; settings: 240 h
[20] = system: Duck hepatitis B virus; assay: Antiviral activity against duck Hepatitis B virus infected in duck assessed as inhibition of viral DNA replication in serum at 1 mg/kg/day, po measured after 3 days of treatment withdrawal; assay type: functional; settings: 72 h
[21] = system: Hepatitis B virus; assay: Antiviral activity against Hepatitis B virus in HepG2.2.15 cells assessed as inhibition of extracellular viral DNA replication at 1 uM after 9 days by real-time FQ-PCR analysis; assay type: functional; settings: HepG2 2.2.15, 216 h
[22] = system: Hepatitis B virus; assay: Antiviral activity against Hepatitis B virus in HepG2.2.15 cells assessed as inhibition of intracellular viral DNA replication at 5 uM after 3 days by real-time FQ-PCR analysis; assay type: functional; settings: HepG2 2.2.15, 72 h
[23] = system: Rattus norvegicus; assay: In vivo drug metabolism in rat plasma sample assessed as 1-((2R,3S,4R,5R)-5-azido-3-fluoro-4-hydroxy-5-(hydroxymethyl)tetrahydrofuran-2-yl)-4-(2-hydroxycyclopropylamino)pyrimidin-2(1H)-one formation by LC-MS/MS analysis; assay type: ADME, organism-based
[24] = system: Duck hepatitis B virus; assay: Antiviral activity against duck Hepatitis B virus infected in po dosed duck assessed as inhibition of viral DNA replication in serum; assay type: functional, organism-based
[25] = system: Hepatitis B virus; assay: Antiviral activity against Hepatitis B virus in HepG2.2.15 cells assessed as inhibition of extracellular viral DNA replication at 0.2 uM after 6 days by real-time FQ-PCR analysis; assay type: functional; settings: HepG2 2.2.15, 144 h
[26] = system: Duck hepatitis B virus; assay: Antiviral activity against duck Hepatitis B virus infected in duck assessed as inhibition of viral DNA replication in serum at 0.2 mg/kg/day, po treatment initiated at day 10 after infection relative to control; assay type: functional; settings: 240 h
[27] = system: Hepatitis B virus; assay: Antiviral activity against Hepatitis B virus in HepG2.2.15 cells assessed as inhibition of intracellular viral DNA replication at 1 uM after 3 days by real-time FQ-PCR analysis; assay type: functional; settings: HepG2 2.2.15, 72 h
[28] = system: Duck hepatitis B virus; assay: Antiviral activity against duck Hepatitis B virus infected in duck assessed as inhibition of viral DNA replication in serum at 0.04 mg/kg/day, po treatment initiated at day 5 after infection relative to control; assay type: functional; settings: 120 h
[29] = system: Mus musculus; assay: Toxicity in KM mouse assessed as micronucleus frequency in bone marrow polychromatic erythrocyte at 80 mg/kg, po single dose after 48 hrs (reference value: 2.20 +/- 0.84 %); assay type: organism-based; settings: in vivo
[30] = system: Mus musculus; assay: Toxicity in KM mouse assessed as micronucleus frequency in bone marrow polychromatic erythrocyte at 10 mg/kg, po single dose after 48 hrs (reference value: 1.20 +/- 0.45 %); assay type: organism-based; settings: in vivo
[31] = system: Mus musculus; assay: Acute toxicity in KM mouse assessed as morbidity at 3 g/kg, iv suspended in 0.5% CMC/Na solution after 14 days; assay type: organism-based; settings: in vivo, 3000 mg/kg, 336 h
[32] = system: Duck hepatitis B virus; assay: Antiviral activity against duck Hepatitis B virus infected in po dosed duck assessed as inhibition of viral DNA replication in liver; assay type: functional, organism-based
[33] = system: Mus musculus; assay: Acute toxicity in KM mouse assessed as listlessness at 300 mg/kg, iv suspended in normal saline; assay type: organism-based; settings: in vivo

In the case of `[N-]=[N+]=N[C@]1(CO)O[C@@H](n2ccc(NC3CC3)nc2=O)[C@@H](F)[C@@H]1O`, the inhibition at 0.2 µM [1] is reported as 33.8%, the inhibition [2] is reported as “tde” and the Drug metabolism [3] is reported as “metabolite_detected”. For the same molecule, the Drug metabolism [4] was “metabolite_detected”, the inhibition in vivo at 1 mg/kg/day [5] was 76.1% and the Activity [6] was 9.13 ×10⁹ /L. For the same molecule, the inhibition at 1 µM [7] was 76.7%, the Activity [8] was 1.6% and the inhibition in vivo at 0.04 mg/kg/day [9] was 58.8%. The inhibition at 1 µM [10] was 86.6%, the Activity [11] was “Non-toxic” and the inhibition in vivo at 1 mg/kg/day [12] was 71.9%. For the same molecule, the inhibition in vivo at 0.2 mg/kg/day [13] was 66%, the Drug metabolism [14] was “metabolite_detected” and the inhibition in vivo at 0.2 mg/kg/day [15] was 52.7%. For the same molecule, the inhibition in vivo at 0.2 mg/kg/day [16] was 62.5%, the inhibition in vivo at 0.04 mg/kg/day [17] was 47.1% and the inhibition at 0.2 µM [18] was 46.5%. For the same molecule, the inhibition in vivo at 0.04 mg/kg/day [19] was 43.4%, the inhibition in vivo at 1 mg/kg/day [20] was 69.9% and the inhibition at 1 µM [21] was 76.2%. The inhibition at 5 µM [22] was 46.2%, the Drug metabolism [23] was “metabolite_detected” and the inhibition [24] was “Dose-dependent effect”. The inhibition at 0.2 µM [25] was 52%, the inhibition in vivo at 0.2 mg/kg/day [26] was 69.5% and the inhibition at 1 µM [27] was 39.2%. It also gave an inhibition in vivo at 0.04 mg/kg/day [28] of 48.1%, an Activity [29] of 1.8% and an Activity [30] of 1.4%. The Activity [31] was “Non-toxic”, the inhibition [32] was “Dose-dependent effect” and the Activity [33] was “Toxic”.
